Assay results taken from patent US8785460B2, “Tricyclic compounds and use thereof” (Takeda Pharmaceutical Company Limited, priority 2008, dated 2014).
Where a name gives a salt, the structure may show the parent alone.

Molecular target: T1, human CRF1 receptor (Homo sapiens, UniProt P34998)
T1 construct: expressed in transfected cells; host or cells: CHO cells (membrane fraction)
T1 sequence (P34998 24-415): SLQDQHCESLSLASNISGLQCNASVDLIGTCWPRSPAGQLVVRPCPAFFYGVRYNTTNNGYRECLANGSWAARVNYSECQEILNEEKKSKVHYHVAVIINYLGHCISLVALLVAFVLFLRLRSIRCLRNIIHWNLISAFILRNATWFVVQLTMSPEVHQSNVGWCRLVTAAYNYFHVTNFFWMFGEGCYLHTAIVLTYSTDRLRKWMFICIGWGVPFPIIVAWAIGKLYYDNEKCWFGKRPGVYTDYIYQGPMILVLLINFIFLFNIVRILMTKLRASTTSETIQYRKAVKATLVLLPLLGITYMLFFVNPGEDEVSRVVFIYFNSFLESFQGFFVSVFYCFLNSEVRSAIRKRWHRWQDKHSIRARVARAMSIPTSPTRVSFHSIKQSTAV
Assay: Measurement of CRF Binding Inhibitory Rate (receptor binding experiment with 125I-CRF)
Details: human CRF1 receptor expressing CHO cellular membrane fraction, 50 pM 125I-CRF, room temperature 1.5 hr, 0.05 nM to 10 μM of compound; read-out: IC50 values (CRF binding inhibition)
Protocol: Measurement of CRF Binding Inhibitory Rate
A receptor binding experiment was carried out using a human CRF1 receptor expressing CHO cellular membrane fraction and ovine CRF, [^125I]-tyr^0(^125I-CRF). 1000 nM of a test compound was incubated with 1 μg of human CREF receptor expressing CHO cellular membrane fraction and 50 pM of ^125I-CRF in a binding assay buffer (50 mM Tris-HCl, 5 mM EDTA, 10 mM MgCl2, 0.05% CHAPS, 0.1% BSA, 0.5 mM PMSF, 0.1 μg/mL pepstatin, 20 μg/mL leupeptin, pH 7.5). In addition, for measuring nonspecific binding (NSB), 0.1 μM unlabelled human Urocortin was incubated with 5 μg of human CRE receptor expressing CHO cellular membrane fraction and 50 pM of ^125I-CRF in a binding assay buffer. After a binding reaction was carried out at room temperature for 1.5 hr, the membrane was entrapped on a glass filter (UniFilter plate GF-C/Perkin Elmer) by suction filtration using a cell harvester (Perkin Elmer), and washed with ice-cooled 50 mM Tris-HCl (pH 7.5). After drying the glass filter, a liquid scintillation cocktail (Microscinti 0, Perkin Elmer) was added, and the radioactivity of ^125I-CRF remaining on a glass filter was measured using Topcount (Perkin Elmer).
(TB−SB)/(TB−NSB)×100 (SB: radioactivity when a compound is added, TB: maximum binding radioactivity, NSB: nonspecific binding radioactivity) were calculated to obtain binding inhibitory rates under the range of the presence from 0.05 nM to 10 μM of each compound. The IC50 values were calculated by using GraphPad Prism software.

SMILES | IC50 [nM]
CCN(CC)c1cccc2nc3n(c12)CCC=C3c1ccc(Cl)cc1Cl [Example 492, 4-(2,4-Dichlorophenyl)-N,N-diethyl-1,2-dihydropyrido[1,2-a]benzimidazol-9-amine] | < 1000
CCN(CC)c1ccc(Cl)c2nc3n(c12)CCCCN3c1ccc(Cl)cc1Cl [Example 98, 10-Chloro-1-(2,4-dichlorophenyl)-N,N-diethyl-2,3,4,5-tetrahydro-1H-[1,3]diazepino[1,2-a]benzimidazol-7-amine] | < 1000
CCO/N=C(\CC)c1ccc(Cl)c2nc3n(c12)CCCN3c1ccc(Cl)cc1Cl [Example 123, (1E)-1-[9-Chloro-1-(2,4-dichlorophenyl)-1,2,3,4-tetrahydropyrimido[1,2-a]benzimidazol-6-yl]propan-1-one O-ethyloxime] | < 1000
CCC(CC)c1ccc(Cl)c2nc3n(c12)CC(=O)N3c1cnc(N(C)C)cc1C [Example 9, 8-Chloro-1-[6-(dimethylamino)-4-methylpyridin-3-yl]-5-(1-ethylpropyl)-1H-imidazo[1,2-a]benzimidazol-2(3H)-one] | < 1000
CCC(CC)c1ccc(Cl)c2nc3n(c12)CCCCN3c1ccc(Br)cc1C [Example 43, 1-(4-Bromo-2-methylphenyl)-10-chloro-7-(1-ethylpropyl)-2,3,4,5-tetrahydro-1H-[1,3]diazepino[1,2-a]benzimidazole] | < 1000
CCN(CC)c1cccc2nc3n(c12)CCCOC3c1ccc(Cl)cc1Cl (single isomer, unassigned) [Example 485, 1-(2,4-Dichlorophenyl)-N,N-diethyl-4,5-dihydro-1H,3H-[1,4]oxazepino[4,3-a]benzimidazol-7-amine] | < 1000
CCCC(O)c1ccc(Cl)c2nc3n(c12)CCCN3c1c(C)cc(Cl)cc1Cl (stereo not shown) [Example 140, 1-[9-Chloro-1-(2,4-dichloro-6-methylphenyl)-1,2,3,4-tetrahydropyrimido[1,2-a]benzimidazol-6-yl]butan-1-ol] | < 1000
CCN(CC)c1cccc2nc3n(c12)CC(F)(F)CCN3c1ccc(Cl)cc1Cl [Example 359, 1-(2,4-Dichlorophenyl)-N,N-diethyl-4,4-difluoro-2,3,4,5-tetrahydro-1H-[1,3]diazepino[1,2-a]benzimidazol-7-amine] | < 1000
COc1ccc(N2CCCn3c2nc2c(Cl)ccc(C(OCC(F)F)C4CC4)c23)c(Cl)c1 (stereo not shown) [Example 472, 9-Chloro-1-(2-chloro-4-methoxyphenyl)-6-[cyclopropyl(2,2-difluoroethoxy)methyl]-1,2,3,4-tetrahydropyrimido[1,2-a]benzimidazole] | < 1000
CCC(OCCO)c1ccc(Cl)c2nc3n(c12)CCCN3c1ccc(Cl)cc1Cl (stereo not shown) [Example 242, 2-{1-[9-Chloro-1-(2,4-dichlorophenyl)-1,2,3,4-tetrahydropyrimido[1,2-a]benzimidazol-6-yl]propoxy}ethanol] | < 1000
CCC(NC(C)=O)c1ccc(Cl)c2nc3n(c12)CCCN3c1c(C)cc(Cl)cc1Cl (stereo not shown) [Example 377, N-{1-[9-Chloro-1-(2,4-dichloro-6-methylphenyl)-1,2,3,4-tetrahydropyrimido[1,2-a]benzimidazol-6-yl]propyl}acetamide] | < 1000
CCC(=O)c1cccc2nc3n(c12)CCCCN3c1ccc(Cl)cc1Cl [Example 69, 1-[1-(2,4-Dichlorophenyl)-2,3,4,5-tetrahydro-1H-[1,3]diazepino[1,2-a]benzimidazol-7-yl]propan-1-one] | < 1000
CCN(CC)c1cccc2nc3n(c12)CCC(=O)NC3c1ccc(Cl)cc1Cl (stereo not shown) [Example 487, 1-(2,4-Dichlorophenyl)-7-(diethylamino)-1,2,4,5-tetrahydro-3H-[1,4]diazepino[1,2-a]benzimidazol-3-one] | < 1000
CCC(OC(=O)C(C)C)c1ccc(Cl)c2nc3n(c12)CCCN3c1ccc(Cl)cc1Cl (stereo not shown) [Example 480, 1-[9-Chloro-1-(2,4-dichlorophenyl)-1,2,3,4-tetrahydropyrimido[1,2-a]benzimidazol-6-yl]propyl 2-methylpropanoate] | < 1000
CCC(OC(C)=O)c1ccc(Cl)c2nc3n(c12)CCCN3c1ccc(OC)nc1C (single isomer, unassigned; (-)) [Example 266, (−)-1-[9-Chloro-1-(6-methoxy-2-methylpyridin-3-yl)-1,2,3,4-tetrahydropyrimido[1,2-a]benzimidazol-6-yl]propyl acetate] | < 1000
Cc1cc(Cl)cc(Cl)c1N1CCCn2c1nc1c(Cl)ccc(C(O)CC3CC3)c12 (stereo not shown) [Example 386, 1-[9-Chloro-1-(2,4-dichloro-6-methylphenyl)-1,2,3,4-tetrahydropyrimido[1,2-a]benzimidazol-6-yl]-2-cyclopropylethanol] | < 1000
CCC(OC(=O)C(C)(C)C)c1ccc(Cl)c2nc3n(c12)CCCN3c1ccc(Cl)cc1Cl (stereo not shown) [Example 481, 1-[9-Chloro-1-(2,4-dichlorophenyl)-1,2,3,4-tetrahydropyrimido[1,2-a]benzimidazol-6-yl]propyl 2,2-dimethylpropanoate] | < 1000
OC(c1ccc(Cl)c2nc3n(c12)CCCN3c1ccc(Cl)cc1Cl)C(F)(F)F (stereo not shown) [Example 307, 1-[9-Chloro-1-(2,4-dichlorophenyl)-1,2,3,4-tetrahydropyrimido[1,2-a]benzimidazol-6-yl]-2,2,2-trifluoroethanol] | < 1000
CCC(OC(C)=O)c1ccc(Cl)c2nc3n(c12)CCCN3c1cnc(OC)cc1C (stereo not shown) [Example 161, 1-[9-Chloro-1-(6-methoxy-4-methylpyridin-3-yl)-1,2,3,4-tetrahydropyrimido[1,2-a]benzimidazol-6-yl]propyl acetate] | < 1000
CCC(CC)c1ccc(Cl)c2nc3n(c12)CCCCN3c1ccc(C)cc1CO [Example 33, {2-[10-Chloro-7-(1-ethylpropyl)-2,3,4,5-tetrahydro-1H-[1,3]diazepino[1,2-a]benzimidazol-1-yl]-5-methylphenyl}methanol] | < 1000
CCC(O)c1ccc(Cl)c2nc3n(c12)CCCN3c1c(C)cc(Cl)cc1Cl (stereo not shown) [Example 379, 1-[9-Chloro-1-(2,4-dichloro-6-methylphenyl)-1,2,3,4-tetrahydropyrimido[1,2-a]benzimidazol-6-yl]propan-1-ol] | < 1000
CCC(CC)c1ccc(Cl)c2nc3n(c12)CCCCN3c1ccc(C)cc1 [Example 32, 10-Chloro-7-(1-ethylpropyl)-1-(4-methylphenyl)-2,3,4,5-tetrahydro-1H-[1,3]diazepino[1,2-a]benzimidazole] | < 1000
CC(C)C(O)c1ccc(Cl)c2nc3n(c12)CCCN3c1ccc(Cl)cc1Cl (stereo not shown) [Example 234, 1-[9-Chloro-1-(2,4-dichlorophenyl)-1,2,3,4-tetrahydropyrimido[1,2-a]benzimidazol-6-yl]-2-methylpropan-1-ol] | < 1000
CC/C(=N\OC)c1ccc(Cl)c2nc3n(c12)CCCN3c1ccc(Cl)cc1Cl [Example 121, (1E)-1-[9-Chloro-1-(2,4-dichlorophenyl)-1,2,3,4-tetrahydropyrimido[1,2-a]benzimidazol-6-yl]propan-1-one O-methyloxime] | < 1000
Cc1nc(C(N)=O)ccc1N1CCCn2c1nc1c(Cl)ccc(C(OC(F)F)C(F)(F)F)c12 (stereo not shown) [Example 293, 5-{9-Chloro-6-[1-(difluoromethoxy)-2,2,2-trifluoroethyl]-3,4-dihydropyrimido[1,2-a]benzimidazol-1(2H)-yl}-6-methylpyridine-2-carboxamide] | < 1000
CCC(CC)c1ccc(Cl)c2nc3n(c12)CCCCN3c1ccc(OC(F)(F)F)cc1CN(C)C [Example 42, 1-[2-[10-Chloro-7-(1-ethylpropyl)-2,3,4,5-tetrahydro-1H-[1,3]diazepino[1,2-a]benzimidazol-1-yl]-5-(trifluoromethoxy)phenyl]-N,N-dimethylmethanamine hydrochloride] | < 1000
CCC(c1ccc(Cl)c2nc3n(c12)CCCN3c1ccc(Cl)cc1Cl)N(C)C(C)=O (stereo not shown) [Example 388, N-{1-[9-Chloro-1-(2,4-dichlorophenyl)-1,2,3,4-tetrahydropyrimido[1,2-a]benzimidazol-6-yl]propyl}-N-methylacetamide] | < 1000
CCC(CC)c1ccc(Cl)c2nc3n(c12)CCCCN3c1c(C)nn(C)c1C [Example 24, 10-Chloro-7-(1-ethylpropyl)-1-(1,3,5-trimethyl-1H-pyrazol-4-yl)-2,3,4,5-tetrahydro-1H-[1,3]diazepino[1,2-a]benzimidazole] | < 1000
